Experiments:
stability = type: physicochemical; conditions: crystalline salt
water solubility = type: physicochemical; conditions: in water

- stability (stability): good
- water solubility (water solubility): complete
Compound: C=CC1=C(C(=O)O)N2C(=O)[C@@H](NC(=O)/C(=N\O)c3csc(N)n3)[C@H]2SC1.N [Crystalline Cefdinir ammonium salt, Cefdinir ammonium salt]
